{"source": "patent US20230248735A1", "about": "“COMPOSITIONS FOR PREVENTING OR TREATING CHRONIC OBSTRUCTIVE PULMONARY DISEASES (COPD)” (Chong Kun Dang Pharmaceutical Corp., priority 2019, published 2023)", "key": {"A549 cells": {"tested_on": "A549 cells", "test": "Inhibitory effect on TGF-β1-induced EMT (E-Cad and N-Cad expression, Western blot)", "type": "cell-based", "details": "5 ng/mL TGF-β1, 48 hours, compared to Vhcl (TGF-β1), FIG. 5", "protocol": "(§1) In order to confirm an effect of the compound according to the present invention on preventing or treating chronic obstructive pulmonary disease, an expression of an epithelial marker protein (E-Cad) and a mesenchymal marker protein (N-Cad) was analyzed. A549 cells were cultured in RPMI-1640 medium containing 10% fetal bovine serum (FBS) and 1% penicillin-streptomycin (P/S). The 1.5×10^5 cells were plated in a 6-well plate and incubated overnight. The cells were cultured with 5 ng/mL of recombinant human transforming growth factor beta 1 (TGF-β1) to induce an epithelial-to-mesenchymal transition (EMT). TGF-β1 was diluted with RPMI-1640 (1% FBS, 1% P/S) and incubated with the cells for 48 hours. The 500 µL of culture medium was loaded on a centrifugal filter (Amicon® Ultra-0.5 mL) and centrifuged at 14,000×g for 10 minutes. The enriched culture medium was boiled with 15 µL of 4X sample buffer at 100° C. for five minutes and analyzed by using the Western blot. The cells were lysed by using an RIPA buffer containing a protease inhibitor cocktail and a phosphatase inhibitor cocktail. A lysate was incubated on ice for three minutes and centrifuged at 13,000×g, 4° C. for 20 minutes. A supernatant was quantified by using a BCA protein assay kit and analyzed by the Western blot. The prepared sample was loaded on NuPAGE Novex 4-12% Bis-Tris gel and decomposed at 120 V Proteins were transferred to a nitrocellulose membrane by using an iBlot machine. The membrane was blocked by using EzBlock Chemi according to the manufacturer’s instructions. Antibodies such as E-cadherin (E-Cad), N-cadherin (N-cad), Fibronectin-EDA (FN-EDA), etc., were used. After reaction with a horseradish peroxidase (HRP)-conjugated secondary antibody, immunoreactive proteins were visualized by using Amersham® ECL select® Western blot detection reagent, and detected by ChemiDoc® MP imaging system. The intensity of the band was quantified with ImageJ software and normalized to β-actin."}, "FN-EDA in A549 cells": {"tested_on": "FN-EDA in A549 cells", "test": "FN-EDA protein reduction in TGF-β1-treated cells (Western blot)", "type": "cell-based", "details": "5 ng/mL TGF-β1, 48 hours, compared to Vhcl (TGF-β1), FIG. 6", "protocol": "as §1\nIn order to confirm an effect of the compound according to the present invention on preventing or treating chronic obstructive pulmonary disease, an expression of FN-EDA, a key extracellular matrix (ECM) protein, was analyzed. The analysis was performed by the same method as described in Example 2 above."}, "[1]": {"tested_on": "mouse with induced COPD (smoking + Poly I:C)", "test": "Evaluation of immune cell infiltration in H&E-stained lung tissue sections, smoking + Poly I:C COPD model", "type": "in vivo, C57BL/6 mouse", "details": "30 mg/kg P.O. Q.D.; compared to smoking + Poly I:C (SM+no drug); FIG. 2", "text": "A C57BL/6 mouse (female, seven weeks old) was placed in a sealed smoking box and exposed to cigarette smoke for a certain period of time to induce COPD disease. Specifically, the mouse was put into the smoking box, after which a cigarette was lit and its filter was connected to a tube under a negative pressure, so that cigarette smoke could be continuously produced. Then, the smoking box was blocked, so that the mouse was forced to inhale the cigarette smoke while breathing in. The mouse was allowed to smoke for a total of four weeks. The mouse was exposed to one, two and four cigarettes once on the first, second and third days of the first week, respectively, and again exposed to four cigarettes twice and three times on the fourth and fifth days, respectively. After that, the mouse was exposed to four cigarettes three times a day for the remaining three weeks. […]\nIn order to confirm an effect of the compound according to the present invention on preventing or treating chronic obstructive pulmonary disease, a degree of immune cell infiltration was evaluated. […] According to a reference image of FIG. 1, a degree of cellular infiltration was determined as a score of 0 to 3, and the score was measured by observing slides for each group [FIG. 1: 0-none, 1-mild, 2-moderate, and 3-severe]."}, "[2]": {"tested_on": "mouse with induced COPD (smoking + Poly I:C)", "test": "Analysis of bronchoalveolar lavage fluid (BAL fluid) cell counts, smoking + Poly I:C COPD model", "type": "in vivo, C57BL/6 mouse", "details": "30 mg/kg P.O. Q.D.; compared with SM+no drug; FIG. 3", "text": "(§2) A C57BL/6 mouse (female, seven weeks old) was placed in a sealed smoking box and exposed to cigarette smoke for a certain period of time to induce COPD disease. Specifically, the mouse was put into the smoking box, after which a cigarette was lit and its filter was connected to a tube under a negative pressure, so that cigarette smoke could be continuously produced. Then, the smoking box was blocked, so that the mouse was forced to inhale the cigarette smoke while breathing in. The mouse was allowed to smoke for a total of four weeks. The mouse was exposed to one, two and four cigarettes once on the first, second and third days of the first week, respectively, and again exposed to four cigarettes twice and three times on the fourth and fifth days, respectively. After that, the mouse was exposed to four cigarettes three times a day for the remaining three weeks. Poly I:C (polyinosinic:polycytidylic acid) was administered into a nasal cavity of the anesthetized mouse twice a week in the third and fourth weeks during induction of smoking, so that a model of smoking + Poly I:C COPD (chronic obstructive pulmonary disease) was induced.\n(§3) In order to confirm a drug administration effect of the compound according to the present invention, mice with induced COPD were divided into each group of six mice, and each of the groups was is classified as shown in a following table 1 according to an administered substance [vehicle (Veh), compound 374 (SM+1), or compound 458 (SM+2)], a route of administration [oral administration (P.O.)], and an administration interval [daily (Q.D.)].\nIn order to confirm an effect of the compound according to the present invention on preventing or treating chronic obstructive pulmonary disease, bronchoalveolar lavage fluid (BAL fluid) was analyzed. The 2 mL of the BAL fluid was separated from the mice of each group and centrifuged. After that, the resulting fluid was suspended in a phosphate buffer solution (PBS), after which the number of total cells was counted, and 2 × 10^5 cells were attached to a slide through a cytospin. After staining with a diff-quick stain kit, the resulting cells were classified into macrophage, neutrophil, etc. based on the properties of the stained cells, so as to count a total of 300 cells, after which a rate of respective cells was calculated with regard to the number of total cells to make a comparison among the groups."}, "[3]": {"tested_on": "IL-6, IFN-γ, MCP-1, TNF-α", "test": "Expression of inflammatory cytokines in lung tissue by real-time PCR, smoking + Poly I:C COPD model", "type": "in vivo, C57BL/6 mouse", "details": "30 mg/kg P.O. Q.D., compared with SM+no drug, FIG. 4", "text": "as §2, §3\nIn order to confirm an effect of the compound according to the present invention on preventing or treating chronic obstructive pulmonary disease, an expression of inflammatory cytokines in lung tissues was analyzed. Lungs were removed from mice of each group, after which RNA was isolated from the lung tissues. For each RNA, cDNA synthesis was performed by using a reverse transcriptase, after which an expression of inflammatory cytokine markers such as IL-6, IFN-y, MCP-1, and TNF-α was analyzed through real-time PCR, so as to compare a degree of induced inflammation among the groups. In this case, a sequence of a primer used in the experiment is the same as shown in a following table 2. (* P < 0.05, ** P < 0.01, and *** P < 0.001)"}}, "data": [{"smiles": "O=C(NO)c1ccc(CN(C(=O)N2CCOCC2)c2cccc(C(F)(F)F)c2)cc1", "note": "[Compound 374, N-(4-(hydroxycarbamoyl)benzyl)-N-(3-(trifluoromethyl)phenyl)morpholine-4-carboxamide]", "values": [{"measurement": "expression of E-Cad (epithelial marker protein)", "setting": "A549 cells", "result": "remarkable increase"}, {"measurement": "expression of N-Cad (mesenchymal marker protein)", "setting": "A549 cells", "result": "remarkable decrease"}, {"measurement": "expression of key ECM protein FN-EDA", "setting": "FN-EDA in A549 cells", "result": "remarkable decrease"}]}, {"smiles": "O=C(NO)c1ccc(CN(C(=O)N2CCOCC2)c2ccc(F)cc2F)cc1", "note": "[Compound 413, N-(2,4-difluorophenyl)-N-(4-(hydroxycarbamoyl)benzyl)morpholine-4-carboxamide]", "values": [{"measurement": "expression of E-Cad (epithelial marker protein)", "setting": "A549 cells", "result": "remarkable increase"}, {"measurement": "expression of N-Cad (mesenchymal marker protein)", "setting": "A549 cells", "result": "remarkable decrease"}, {"measurement": "expression of key ECM protein FN-EDA", "setting": "FN-EDA in A549 cells", "result": "remarkable decrease"}]}, {"smiles": "O=C(NO)c1ccc(CN(C(=O)N2CCOCC2)c2ccc(F)c(Cl)c2)cc1", "note": "[Compound 458, N-(3-chloro-4-fluorophenyl)-N-(4-(hydroxycarbamoyl)benzyl)morpholine-4-carboxamide]", "values": [{"measurement": "expression of E-Cad (epithelial marker protein)", "setting": "A549 cells", "result": "remarkable increase"}, {"measurement": "expression of N-Cad (mesenchymal marker protein)", "setting": "A549 cells", "result": "remarkable decrease"}, {"measurement": "expression of key ECM protein FN-EDA", "setting": "FN-EDA in A549 cells", "result": "remarkable decrease"}]}, {"smiles": "COc1cccc(N(Cc2ccc(C(=O)NO)cc2)C(=O)N2CCOCC2)c1", "note": "[Compound 484, N-(4-(Hydroxycarbamoyl)Benzyl)-N-(3-Methoxyphenyl)Morpholine-4-Carboxamide]", "values": [{"measurement": "expression of E-Cad (epithelial marker protein)", "setting": "A549 cells", "result": "remarkable increase"}, {"measurement": "expression of N-Cad (mesenchymal marker protein)", "setting": "A549 cells", "result": "remarkable decrease"}, {"measurement": "expression of key ECM protein FN-EDA", "setting": "FN-EDA in A549 cells", "result": "remarkable decrease"}]}, {"smiles": "O=C(NO)c1ccc(CN(C(=O)N2CCOCC2)c2cccc(F)c2)cc1", "note": "[Compound 530]", "values": [{"measurement": "expression of E-Cad (epithelial marker protein)", "setting": "A549 cells", "result": "remarkable increase"}, {"measurement": "expression of N-Cad (mesenchymal marker protein)", "setting": "A549 cells", "result": "remarkable decrease"}, {"measurement": "expression of key ECM protein FN-EDA", "setting": "FN-EDA in A549 cells", "result": "remarkable decrease"}]}, {"smiles": "O=C(NO)c1ccc(CN(C(=O)N2CCCOCC2)c2cccc(F)c2)cc1", "note": "[Compound 652]", "values": [{"measurement": "expression of E-Cad (epithelial marker protein)", "setting": "A549 cells", "result": "remarkable increase"}, {"measurement": "expression of N-Cad (mesenchymal marker protein)", "setting": "A549 cells", "result": "remarkable decrease"}, {"measurement": "expression of key ECM protein FN-EDA", "setting": "FN-EDA in A549 cells", "result": "remarkable decrease"}]}, {"smiles": "O=C(NO)c1ccc(CN(C(=O)N2CCOCC2)c2cccc(C(F)(F)F)c2)cc1", "note": "[SM+1, N-(4-(hydroxycarbamoyl)benzyl)-N-(3-(trifluoromethyl)phenyl)morpholine-4-carboxamide]", "values": [{"measurement": "cellular infiltration score (0 to 3) in lung tissue", "setting": "[1]", "result": "decrease"}, {"measurement": "number of macrophages in BAL fluid", "setting": "[2]", "result": "decreased"}, {"measurement": "number of neutrophils in BAL fluid", "setting": "[2]", "result": "decreased"}, {"measurement": "number of total cells in BAL fluid", "setting": "[2]", "result": "decreased"}, {"measurement": "expression of IFN-y in lung tissue", "setting": "[3]", "result": "decreased"}, {"measurement": "expression of IL-6 in lung tissue", "setting": "[3]", "result": "decreased"}, {"measurement": "expression of MCP-1 in lung tissue", "setting": "[3]", "result": "decreased"}, {"measurement": "expression of TNF-α in lung tissue", "setting": "[3]", "result": "decreased"}]}, {"smiles": "O=C(NO)c1ccc(CN(C(=O)N2CCOCC2)c2ccc(F)c(Cl)c2)cc1", "note": "[SM+2, N-(3-chloro-4-fluorophenyl)-N-(4-(hydroxycarbamoyl)benzyl)morpholine-4-carboxamide]", "values": [{"measurement": "cellular infiltration score (0 to 3) in lung tissue", "setting": "[1]", "result": "decrease"}, {"measurement": "number of macrophages in BAL fluid", "setting": "[2]", "result": "decreased"}, {"measurement": "number of neutrophils in BAL fluid", "setting": "[2]", "result": "decreased"}, {"measurement": "number of total cells in BAL fluid", "setting": "[2]", "result": "decreased"}, {"measurement": "expression of IFN-y in lung tissue", "setting": "[3]", "result": "decreased"}, {"measurement": "expression of IL-6 in lung tissue", "setting": "[3]", "result": "decreased"}, {"measurement": "expression of MCP-1 in lung tissue", "setting": "[3]", "result": "decreased"}, {"measurement": "expression of TNF-α in lung tissue", "setting": "[3]", "result": "decreased"}]}]}
